Several values for one entry are separate records, joined by “and”; a condition that tells them apart may be missing. Identical values can stand only once. Like-named read-outs stand apart in the source and are kept apart here. Marks after values point to notes of the source that are not given here.
How the values were obtained:
[1] = system: herpes simplex virus I (HSV-I); experiment: Influences of drugs on virus-induced CPE (antiviral effective rate, MTT), HSV-I; assay type: cell-based; settings: Vero cells, 100TCID50, drug at nearly the maximum non-cytotoxic concentration
Influenza virus [2] = experiment: Influences of drugs on virus-induced CPE (antiviral effective rate, MTT), influenza virus; assay type: cell-based
adenovirus (AdV) = experiment: Influences of drugs on virus-induced CPE (antiviral effective rate, MTT), ADV; assay type: cell-based; settings: Vero cells, 100TCID50, drug at nearly the maximum non-cytotoxic concentration
[3] = system: Coxsackie virus B3 (CVB3); experiment: Influences of drugs on virus-induced CPE (antiviral effective rate, MTT), CVB3; assay type: cell-based; settings: CVB3, Vero cells, 100TCID50, drug at nearly the maximum non-cytotoxic concentration
Vero cells = settings: 72 hours, MTT, Probit regression
Description: Performing subculture on Vero cells for 1-2 days to form sheets and have clear boundaries, performing trypsin digestion when stereoscopic impression and diopter are high, completely absorbing digestive juice when needle tip shaped holes occur on cells surfaces, blowing away the cells with milliliters of culture solution, counting, diluting to the quantity of 5×10^7 cells/L with the culture solution (DMEM containing 10% fetal calf serum), inoculating in a 96-well culture plate, and enabling the cells to grow to a single layer.
Cytotoxicity test: drugs are diluted with a maintenance solution (DMEM containing 2% fetal calf serum) according to concentrations shown in Table 1-1, and are used for cytotoxicity determination.

influenza virus [4] = assay type: in vivo, Kunming mice; settings: for inhibitory effect on the virus and the mouse virus pneumonia caused by it (in words): in vivo; for Lung index (X ± S) / Lung index inhibition rate (%): mice infected with influenza virus, 5 days, n = 3
enterovirus EV71 = experiment: Influences of drugs on virus-induced CPE (antiviral effective rate, MTT), EV71; assay type: cell-based; settings: EV71, Vero cells, 100TCID50, drug at nearly the maximum non-cytotoxic concentration
Parainfluenza virus [5] = experiment: Influences of drugs on virus-induced CPE (antiviral effective rate, MTT), parainfluenza virus; assay type: cell-based; settings: Vero cells, 100TCID50, drug at nearly the maximum non-cytotoxic concentration
parainfluenza virus [6] = assay type: in vivo, Kunming mice
[7] = system: Coxsackie virus A16 (CoxA16); experiment: Influences of drugs on virus-induced CPE (antiviral effective rate, MTT), CoxA16; assay type: cell-based; settings: CoxA16, Vero cells, 100TCID50, drug at nearly the maximum non-cytotoxic concentration
[8] = system: respiratory syncytial virus (RSV); experiment: Influences of drugs on virus-induced CPE (antiviral effective rate, MTT), RSV; assay type: cell-based; settings: Vero cells, 100TCID50, drug at nearly the maximum non-cytotoxic concentration
influenza virus [9] = assay type: in vivo, Kunming mice; settings: lung suspension, mice infected with influenza virus, 5 days, n = 3
parainfluenza virus [10] = assay type: in vivo, Kunming mice; settings: lung suspension, mice infected with parainfluenza virus, 5 days, n = 3
[11] = Influenza virus, Vero cells, 100TCID50, drug at nearly the maximum non-cytotoxic concentration
[12] = High-dose group 10.0 mg/kg/d intragastric
[13] = Low-dose group 2.25 mg/kg/d intragastric
[14] = Medium-dose group 5.0 mg/kg/d intragastric
[15] = mice infected with parainfluenza virus, 13.0 mg/kg/d (Compound I: High-dose group) intragastric, 5 days, n = 3

## COc1cc(C2OCC3C(c4ccc5c(c4)OCO5)OCC23)ccc1OC1OC(C(=O)O)C(O)C(O)C1O [Compound III, 33,34-Methylenedioxy phillygenin-8-O-β-D-glucuronide]
[1]
  antiviral effective rate (ER %): 96.06** %
Influenza virus [2]; [11]
  antiviral effective rate (ER %): 91.35** %
Adenovirus (AdV)
  antiviral effective rate (ER %): 22.17* %
[3]
  antiviral effective rate (ER %): 9.63%
Vero cells
  Maximum non-cytotoxic concentration (TC0): 0.0906 g/L
  Semi-cytotoxic concentration (TC50): 435 µg/mL
Influenza virus [4]
  inhibitory effect on the virus and the mouse virus pneumonia caused by it (in words): obvious inhibitory effects
Enterovirus EV71
  antiviral effective rate (ER %): 51.64%
Parainfluenza virus [5]
  antiviral effective rate (ER %): 92.22** %
Parainfluenza virus [6]; mouse, in vivo
  inhibitory effect on the virus and the mouse virus pneumonia caused by it (in words): obvious inhibitory effects
[7]
  antiviral effective rate (ER %): 100.00** %
[8]
  antiviral effective rate (ER %): 86.18** %

## COc1ccc(C2OCC3C(c4ccc(OC5OC(C(=O)O)C(O)C(O)C5O)c(O)c4)OCC23)cc1OC (stereo not shown) [Compound II]
[1]
  antiviral effective rate (ER %): 93.35** %
Influenza virus [2]; [11]
  antiviral effective rate (ER %): 92.74** %
Adenovirus (AdV)
  antiviral effective rate (ER %): 20.46* %
[3]
  antiviral effective rate (ER %): 11.18%
Vero cells
  Maximum non-cytotoxic concentration (TC0): 0.103 g/L
  Semi-cytotoxic concentration (TC50): 412 µg/mL
Influenza virus [4]
  inhibitory effect on the virus and the mouse virus pneumonia caused by it (in words): obvious inhibitory effects
Enterovirus EV71
  antiviral effective rate (ER %): 54.32%
Parainfluenza virus [5]
  antiviral effective rate (ER %): 90.13** %
Parainfluenza virus [6]; mouse, in vivo
  inhibitory effect on the virus and the mouse virus pneumonia caused by it (in words): obvious inhibitory effects
[7]
  antiviral effective rate (ER %): 99.25** %
[8]
  antiviral effective rate (ER %): 81.14** %

## COc1cc(C2OCC3C(c4ccc(OC5OC(C(=O)O)C(O)C(O)C5O)c(OC)c4)OCC23)ccc1O (stereo not shown) [Compound I]
[1]
  antiviral effective rate (ER %): 91.23** %
Influenza virus [9]; [12]
  Hemagglutination titer (InX): 19.24 ± 0.513
  Inhibition rate (%) of hemagglutination titer: 40.28%
Influenza virus [9]; [13]
  Hemagglutination titer (InX): 22.16 ± 1.270
  Inhibition rate (%) of hemagglutination titer: 31.26%
Influenza virus [9]; [14]
  Hemagglutination titer (InX): 20.37 ± 0.285
  Inhibition rate (%) of hemagglutination titer: 36.32%
Parainfluenza virus [10]; [12]
  Hemagglutination titer (InX): 19.68 ± 0.638
  Inhibition rate (%) of hemagglutination titer: 38.36%
Parainfluenza virus [10]; [13]
  Hemagglutination titer (InX): 21.62 ± 0.553
  Inhibition rate (%) of hemagglutination titer: 33.61%
Parainfluenza virus [10]; [14]
  Hemagglutination titer (InX): 20.47 ± 0.583
  Inhibition rate (%) of hemagglutination titer: 36.32%
Influenza virus [2]; [11]
  antiviral effective rate (ER %): 95.81** %
Adenovirus (AdV)
  antiviral effective rate (ER %): 21.26* %
[3]
  antiviral effective rate (ER %): 10.16%
Vero cells
  Maximum non-cytotoxic concentration (TC0): 0.106 g/L
  Semi-cytotoxic concentration (TC50): 482 µg/mL
Influenza virus [4]; [12]
  Lung index (X ± S): 1.145 ± 0.037
  Lung index inhibition rate (%): 22.82%
Influenza virus [4]; [13]
  Lung index (X ± S): 1.225 ± 0.034
  Lung index inhibition rate (%): 17.85%
Influenza virus [4]; [14]
  Lung index (X ± S): 1.187 ± 0.028
  Lung index inhibition rate (%): 20.03%
Influenza virus [4]
  inhibitory effect on the virus and the mouse virus pneumonia caused by it (in words): obvious inhibitory effects
Enterovirus EV71
  antiviral effective rate (ER %): 52.15%
Parainfluenza virus [5]
  antiviral effective rate (ER %): 96.24** %
Parainfluenza virus [6]; mouse, in vivo
  Lung index (X ± S): 1.277 ± 0.054 and 1.318 ± 0.028
  Lung index inhibition rate (%): 19.73% and 16.94%
  inhibitory effect on the virus and the mouse virus pneumonia caused by it (in words): obvious inhibitory effects
Parainfluenza virus [6]; mouse, in vivo, 13 mg/kg/day
  Lung index (X ± S): 1.239 ± 0.037
  Lung index inhibition rate (%): 22.26%
[7]
  antiviral effective rate (ER %): 100.00** %
[8]
  antiviral effective rate (ER %): 83.21** %

## CCOC(=O)C1=C[C@@H](OC(CC)CC)[C@H](NC(C)=O)[C@@H](N)C1 [Oseltamivir phosphate, reference compound]
[1]
  antiviral effective rate (ER %): 63.24** %
Influenza virus [9]; 19.5 mg/kg/d intragastric
  Hemagglutination titer (InX): 20.47 ± 1.104
  Inhibition rate (%) of hemagglutination titer: 35.26%
Parainfluenza virus [10]; 19.5 mg/kg/d intragastric
  Hemagglutination titer (InX): 23.24 ± 1.242
  Inhibition rate (%) of hemagglutination titer: 31.14%
Influenza virus [2]; [11]
  antiviral effective rate (ER %): 82.19** %
Adenovirus (AdV)
  antiviral effective rate (ER %): 12.12%
[3]
  antiviral effective rate (ER %): 1.53%
Vero cells
  Maximum non-cytotoxic concentration (TC0): 0.27 g/L
  Semi-cytotoxic concentration (TC50): 834 µg/mL
Influenza virus [4]; 19.5 mg/kg/d intragastric
  Lung index (X ± S): 1.176 ± 0.045
  Lung index inhibition rate (%): 19.76%
Enterovirus EV71
  antiviral effective rate (ER %): 48.65%
Parainfluenza virus [5]
  antiviral effective rate (ER %): 92.11** %
Parainfluenza virus [6]; mouse, in vivo, 19.5 mg/kg/day
  Lung index (X ± S): 1.241 ± 0.046
  Lung index inhibition rate (%): 21.83%
[7]
  antiviral effective rate (ER %): 2.94%
[8]
  antiviral effective rate (ER %): 39.22%

## COc1cc([C@H]2OC[C@H]3[C@@H]2CO[C@H]3c2ccc(OC)c(OC)c2)ccc1O [Phillygenin]
[1]
  antiviral effective rate (ER %): 85.36** %
Influenza virus [9]; 13.0 mg/kg/d intragastric
  Hemagglutination titer (InX): 21.15 ± 1.024
  Inhibition rate (%) of hemagglutination titer: 29.15%
Parainfluenza virus [10]; 13.0 mg/kg/d intragastric
  Hemagglutination titer (InX): 23.63 ± 1.156
  Inhibition rate (%) of hemagglutination titer: 27.75%
Influenza virus [2]; [11]
  antiviral effective rate (ER %): 88.17** %
Adenovirus (AdV)
  antiviral effective rate (ER %): 14.25* %
[3]
  antiviral effective rate (ER %): 2.29%
Vero cells
  Maximum non-cytotoxic concentration (TC0): 0.012 g/L
  Semi-cytotoxic concentration (TC50): 293 µg/mL
Influenza virus [4]; 13.0 mg/kg/d intragastric
  Lung index (X ± S): 1.208 ± 0.025
  Lung index inhibition rate (%): 11.67%
Enterovirus EV71
  antiviral effective rate (ER %): 32.27%
Parainfluenza virus [5]
  antiviral effective rate (ER %): 94.06** %
Parainfluenza virus [6]; [15]
  Lung index (X ± S): 1.349 ± 0.046
  Lung index inhibition rate (%): 14.56%
[7]
  antiviral effective rate (ER %): 97.03** %
[8]
  antiviral effective rate (ER %): 81.41** %

## NC(=O)c1ncn([C@@H]2O[C@H](CO)[C@@H](O)[C@H]2O)n1 [Ribavirin, reference compound]
[1]
  antiviral effective rate (ER %): 64.65** %
Influenza virus [9]; 58.5 mg/kg/d intragastric
  Hemagglutination titer (InX): 21.87 ± 1.050
  Inhibition rate (%) of hemagglutination titer: 32.35%
Parainfluenza virus [10]; 58.5 mg/kg/d intragastric
  Hemagglutination titer (InX): 24.32 ± 1.123
  Inhibition rate (%) of hemagglutination titer: 23.25%
Influenza virus [2]
  antiviral effective rate (ER %): 56.44** %
Adenovirus (AdV)
  antiviral effective rate (ER %): 0.47%
[3]
  antiviral effective rate (ER %): 12.14%
Enterovirus EV71
  antiviral effective rate (ER %): 4.03** %
Parainfluenza virus [5]
  antiviral effective rate (ER %): 95.13** %
[7]
  antiviral effective rate (ER %): 0.72%
[8]
  antiviral effective rate (ER %): 52.15* %
